Laboratory results published in patent USRE39887E1, “Dehydrodidemnin B” (Pharma Mar, S.A., priority 1989, dated 2007).
In brackets after ≈: the same amount, converted by molar mass. Starred links: 1 amine or outer side, 2 acyl side, 3 side chain; linkers in the order of their positions; H or OH if unused. Positions of bridges follow the written chain, without caps; N, C: chain ends. Non-standard residues stand in square brackets, D forms with d. Residues, ends and D or L forms follow the SMILES beside them. *: point of attachment. X1 = CC[C@H](C)[C@@H](N[*:1])[C@@H](O)CC(=O)O[C@H](C(=O)[C@H](C)C(=O)[*:2])C(C)C; NMeY = CN[C@@H](Cc1ccc(O)cc1)C(=O)O; dNMeL = CN[C@H](CC(C)C)C(=O)O; Pyruvoyl = CC(=O)C(=O)*

Legend:
murine cells = assay: Mixed lymphocyte reaction
[1] = Immunosuppressive / immunomodulator activity
murine B-cells = assay: Growth of murine B-cells
A-549 cells = assay: Growth inhibition of A-549 cells; assay type: cell-based, human; conditions: for % Inhibition / net increase in cell number: 4 days after seeding
Description: 2.5 Assay Against A-549 Cells (Human Lung Carcinoma)
(§1) A-549 cells were seeded into 16 mm wells at 1×10^4 cells per well in 1 mL aliquots of MEM 10C. The following day, the medium was replaced with 0.5 mL aliquots of MEM 10C containing the indicated concentrations of drug. All determinations were carried out in triplicate. A separate set of cultures without drug was counted daily to ensure that the cells remained in exponential growth over the period of observation. Cells were trypsinated and counted 4 days after seeding.

HeLa cells = assay: Growth inhibition of HeLa cells; assay type: cell-based, human; conditions: HeLa cells in vitro
Description: 2.6 Assay Against HeLa Cells (Human Cervix Epithelioid Carcinoma)
as §1, with “HeLa” for “A-549”, “trypsinized” for “trypsinated”

[2] = system: P-388 mouse leukemia cells; assay: P-388 in vivo activity; conditions: QD 1-9, IP
KB cells = assay: Growth inhibition of KB cells; assay type: cell-based, human; conditions: for % Inhibition / net increase in cell number: KB
[3] = system: Lewis lung carcinoma cells; assay: Lewis lung in vivo activity; conditions: QD 1-9, IP
[4] = system: CV-1 cells (monkey kidney cells); assay: Cytotoxicity to CV-1 cells; assay type: cell-based
B-16 melanoma cells = assay: B-16 melanoma in vivo activity; parameters: species or system mouse; conditions: QD 1-9, IP; for B-16 Melanoma % T/C: significant activity T/C ≧ 125
B-16 cells = assay: Growth inhibition of B-16 cells; assay type: cell-based, mouse; conditions: for % Inhibition / net increase in cell number: 4 day after seeding
Description: 2.4 Assay Against B-16 (Mouse Melanoma)
B-16 cells were seeded into 16 mm wells at 1×10^4 cells per well in 1 mL aliquots of MEM 10C […] were carried out in triplicate. A separate set of cultures without drug was counted daily to ensure that the cells remained in exponential growth over the period for observation. Cells were typsinized and counted 4 day after seeding.

murine T-cells = assay: Growth of murine T-cells
L-929 cells = assay: Growth inhibition of L-929 cells; assay type: cell-based, mouse; conditions: for % Inhibition / net increase in cell number: 4 days after seeding
Description: 2.3 Assay Against L-929 Cells (Mouse Areolar and Adipose Tissue)
as §1, with “L-929 cells were” for “A-549 cells were”, “in 1 mL aliquots of MEM 10C.[…]” for “in 1 mL aliquots”, “Cells were typsinized and counted” for “Cells were trypsinated and counted”

L-1210 cells = assay: Growth inhibition of L-1210 cells; assay type: cell-based, mouse
Description: 2.1 Assay Against L-1210 Cells (Ascetic Fluid from DBA/2mouse)
(§2) L-1210 cells were seeded into 16 mm wells at 1×10^4 cells per well in 1 mL aliquots of MEN 10C containing the indicated concentrations of drug. All determinations were carried out in triplicate. Cells were counted after three drugs was counted daily to ensure that the cells remained in exponential growth over the period of observation.

P-388 cells = assay: Growth inhibition of P-388 cells; assay type: cell-based, mouse; conditions: for % Inhibition / net increase in cell number: three days
Description: 2.2 Assay Against P-388 Cells (Lymphoid Neoplasm from DBA/2mouse)
as §2, with “P-388” for “L-1210”, “MEM” for “MEN”, “determination” for “determinations”, “days of incubation. A separate set of cultures within drug” for “drugs”

[5] = system: Herpes simplex virus, type 1; assay: Inhibition of HSV-1 replication in CV-1 cells; assay type: cell-based; parameters: net virus produced / % Inhibition: dose or concentration left out as unconfirmed; conditions: HSV-1 in CV-1 cells; for % Inhibition / net virus produced: 24 hours after infection
Description: 2.8 Assay Against HSV-1 (Herpes Simplex Virus Type-1)
16 mm diameter wells were seeded each with 2×10^5 CV-1 cells in 1 mL aliquots of MEM 10C. Four days after, cells were infected with HSV-1 at 10C PFU per well. After adsorption for 1.5 hours, the inoculum was replaced in pairs of wells with 0.5 mL aliquots of MEM 5C containing the indicated concentrations of drug. Cells from two wells without drug were scraped into the medium and frozen 4 hours after infection to provide a baseline for calculating new virus production. The average of these samples was 2.5×10^5+1.2×10^6 PFU per mL. The remaining samples were collected 24 hours after infection.

[6] = Montgomery et al., Transplantation, 40, 49-56 (1985); cited from earlier work
human lymphocytes = conditions: compared with other didemnin compounds; Montgomery et al. (1987); cited from earlier work

SMILES: CC[C@H](C)[C@H]1NC(=O)[C@@H](NC(=O)[C@@H](CC(C)C)N(C)C(=O)[C@@H]2CCCN2C(=O)C(C)=O)[C@@H](C)OC(=O)[C@H](Cc2ccc(OC)cc2)N(C)C(=O)[C@@H]2CCCN2C(=O)[C@H](CC(C)C)NC(=O)[C@@H](C)C(=O)[C@H](C(C)C)OC(=O)C[C@@H]1O [DDB, dehydrodidemnin B] (Pyruvoyl-P[dNMeL]T[X1]LP[NMeY](Me); ester 3-C)
- immune reaction in the mixed lymphocyte reaction (murine cells): suppresses the immune reaction of murine cells
- immunomodulator activity [1]: powerful immunomodulator
- growth of murine B-cells (murine B-cells): inhibits the growth
- % Inhibition (A-549 cells; A-549, 0.25 ng/mL DDB): 41%
- net increase in cell number (A-549 cells; A-549, 0.25 ng/mL DDB): 4.80 × 10^4
- % Inhibition (A-549 cells; A-549, 0.50 ng/mL DDB): 50%
- net increase in cell number (A-549 cells; A-549, 0.50 ng/mL DDB): 4.00 × 10^4
- % Inhibition (A-549 cells; A-549, 1.0 ng/mL DDB): 68%
- net increase in cell number (A-549 cells; A-549, 1.0 ng/mL DDB): 2.50 × 10^4
- % Inhibition (A-549 cells; A-549, 2.5 ng/mL DDB): 84%
- net increase in cell number (A-549 cells; A-549, 2.5 ng/mL DDB): 1.30 × 10^4
- IC50 (A-549 cells; A-549 cells in vitro): 0.5 ng/mL (≈ 0.45 nM)
- IC50 (HeLa cells): 0.5 ng/mL (≈ 0.45 nM)
- P-388, Median Survival Time ([2]; 80 μg/kg/injn): 19.5 days
- P-388, Median Survival Time ([2]; 160 μg/kg/injn): 21.0 days
- IC50 (KB cells; KB cells in vitro): 5.6 ng/mL (≈ 5.04 nM)
- % Inhibition (KB cells; 2.5 ng/mL DDB): 0%
- net increase in cell number (KB cells; 2.5 ng/mL DDB): 4.57 × 10^4
- % Inhibition (KB cells; 5 ng/mL DDB): 46%
- net increase in cell number (KB cells; 5 ng/mL DDB): 2.40 × 10^4
- % Inhibition (KB cells; 10 ng/mL DDB): 77%
- net increase in cell number (KB cells; 10 ng/mL DDB): 1.02 × 10^4
- Lewis Lung, Mean Tumor Volume ([3]; 80 μg/kg/injn): 189 mm^3
- Lewis Lung, Mean Tumor Volume ([3]; 160 μg/kg/injn): 0 mm^3
- IC50 [4]: 1000 ng/mL (≈ 901 nM)
- B-16 Melanoma Median Survival Time Days (B-16 melanoma cells; 80 μg/kg/injn): >27.0 days
- B-16 Melanoma % T/C (B-16 melanoma cells; 80 μg/kg/injn): >158%
- B-16 Melanoma Median Survival Time Days (B-16 melanoma cells; 160 μg/kg/injn): >27.0 days
- B-16 Melanoma % T/C (B-16 melanoma cells; 160 μg/kg/injn): >158%
- % Inhibition (B-16 cells; B-16, 0.12 ng/mL DDB): 25%
- net increase in cell number (B-16 cells; B-16, 0.12 ng/mL DDB): 1.27 × 10^5
- % Inhibition (B-16 cells; B-16, 0.16 ng/mL DDB): 0%
- net increase in cell number (B-16 cells; B-16, 0.16 ng/mL DDB): 1.71 × 10^5
- % Inhibition (B-16 cells; B-16, 0.25 ng/mL DDB): 54%
- net increase in cell number (B-16 cells; B-16, 0.25 ng/mL DDB): 8.25 × 10^5
- % Inhibition (B-16 cells; B-16, 0.5 ng/mL DDB): 74%
- net increase in cell number (B-16 cells; B-16, 0.5 ng/mL DDB): 4.50 × 10^4
- % Inhibition (B-16 cells; B-16, 1.0 ng/mL DDB): 83%
- net increase in cell number (B-16 cells; B-16, 1.0 ng/mL DDB): 2.88 × 10^4
- IC50 (B-16 cells; B-16 cells in vitro): 0.225 ng/mL (≈ 0.203 nM)
- growth of murine T-cells (murine T-cells): inhibits the growth
- % Inhibition (L-929 cells; L-929, 1 ng/mL DDB): 27%
- net increase in cell number (L-929 cells; L-929, 1 ng/mL DDB): 2.31 × 10^5
- % Inhibition (L-929 cells; L-929, 2.5 ng/mL DDB): 64%
- net increase in cell number (L-929 cells; L-929, 2.5 ng/mL DDB): 1.13 × 10^5
- % Inhibition (L-929 cells; L-929, 5 ng/mL DDB): 84%
- net increase in cell number (L-929 cells; L-929, 5 ng/mL DDB): 5 × 10^5
- IC50 (L-929 cells; L-929 cells in vitro): 1.9 ng/mL (≈ 1.71 nM)
- % Inhibition (L-1210 cells; L-1210, 0.05 ng/mL DDB): 7%
- net increase in cell number (L-1210 cells; L-1210, 0.05 ng/mL DDB): 2.7 × 10^5
- % Inhibition (L-1210 cells; L-1210, 0.1 ng/mL DDB): 7%
- net increase in cell number (L-1210 cells; L-1210, 0.1 ng/mL DDB): 2.7 × 10^5
- % Inhibition (L-1210 cells; L-1210, 0.2 ng/mL DDB): 28%
- net increase in cell number (L-1210 cells; L-1210, 0.2 ng/mL DDB): 2.1 × 10^5
- % Inhibition (L-1210 cells; L-1210, 0.5 ng/mL DDB): 66%
- net increase in cell number (L-1210 cells; L-1210, 0.5 ng/mL DDB): 1.0 × 10^5
- % Inhibition (L-1210 cells; L-1210, 1 ng/mL DDB): 91%
- net increase in cell number (L-1210 cells; L-1210, 1 ng/mL DDB): 2.5 × 10^5
- % Inhibition (L-1210 cells; L-1210, 2 ng/mL DDB): 98%
- net increase in cell number (L-1210 cells; L-1210, 2 ng/mL DDB): 6.3 × 10^5
- IC50 (L-1210 cells; L-1210 cells in vitro): 0.3 ng/mL (≈ 0.27 nM)
- % Inhibition (P-388 cells; P-388, 0.12 ng/mL DDB): 29%
- net increase in cell number (P-388 cells; P-388, 0.12 ng/mL DDB): 3.97 × 10^5
- % Inhibition (P-388 cells; P-388, 0.25 ng/mL DDB): 77%
- net increase in cell number (P-388 cells; P-388, 0.25 ng/mL DDB): 1.27 × 10^5
- % Inhibition (P-388 cells; P-388, 0.5 ng/mL DDB): 92%
- net increase in cell number (P-388 cells; P-388, 0.5 ng/mL DDB): 4.47 × 10^5
- IC50 (P-388 cells; P-388 cells in vitro): 0.175 ng/mL (≈ 0.158 nM)
- IC50 [5]: 60 ng/mL (≈ 54 nM)
- % Inhibition ([5]; 0.03 DDB): 16%
- net virus produced ([5]; 0.03 DDB): 3.8 × 10^8 PFU/mL
- % Inhibition ([5]; 0.1 DDB): 67%
- net virus produced ([5]; 0.1 DDB): 1.5 × 10^8 PFU/mL
- % Inhibition ([5]; 0.3 DDB): 96%
- net virus produced ([5]; 0.3 DDB): 1.9 × 10^8 PFU/mL
- % Inhibition ([5]; 1 DDB): 100%
- net virus produced ([5]; 1 DDB): 0 PFU/mL

SMILES: CC[C@H](C)[C@H]1NC(=O)[C@@H](NC(=O)[C@@H](CC(C)C)N(C)C(=O)[C@@H]2CCCN2C(=O)C(C)O)[C@@H](C)OC(=O)[C@H](Cc2ccc(OC)cc2)N(C)C(=O)[C@@H]2CCCN2C(=O)[C@H](CC(C)C)NC(=O)[C@@H](C)C(=O)[C@H](C(C)C)OC(=O)C[C@@H]1O (stereo partly shown) [Didemnin B]
- immunosuppressive activity [6]: potent immunosuppressive activity
- inhibition of binding of prolactin to human lymphocytes (human lymphocytes): more potent inhibition
